Assay results published in US8765783B2, “Pharmaceutical composition for treatment of disease due to vascular constriction or vasodilation” (Ono Pharmaceuticals Co., Ltd., priority 2002, dated 2014).
“Also recorded” adds a separate entry of the source.

Experiments:
rat basilar artery = assay: Vasoconstrictor action of rat basilar artery induced by S1P into cisterna (in vivo); settings: 10 μg/100 μL/rat, i.c., 30 minutes after S1P into cisterna
Source text: Rat (CD(SD)IGS, male, Charles River Japan Inc., 11 weeks old-13 weeks old, 400-550 g) was anesthetized by injection of urethane (1.2 g/kg, s.c.), incised scalp of occipital for administration of S1P into cisterna and then fixed to dorsal position. Rat was inserted into trachea with catheter and then, cut down with esophagus, and skull at the base of brain was exposed. Under the stereomicroscope, craniotomy was carefully operated with electric drill and scorper forceps. We made basilar artery expose, and it was done in the condition which arachnoid was left, and coating on basilar artery was exfoliated, and could be observed. Observation and image capture of basilar artery were performed using the stereomicroscope (Olympus Optics Inc., SZH-10) and charge-coupled device (CCD) camera (FUJIFILM, HC-2500) connected with it. Macscope (MITANI Corp.) was used as an Image capture software. […] Diameter of basilar artery was measured by selecting from an area having no branch in the center of basilar artery. The diameter was calculated by comparing with the length of micrometer (0.2 mm, 0.01 mm scale) shooted in the same condition. […] The calculation of percentage of basilar artery diameter was calculated by dividing diameter after the S1P administration by a pre-value. […]

[1] = tested on: rat removed basilar artery; assay: Vasoconstrictor action of rat removed basilar artery; settings: 3 μM (FIG. 3, FIG. 4)
Experimental: Basilar arteries were removed from male rat (CD(SD)IGS, male, Charles River Japan, Inc., 8 weeks old-10 weeks old, 350-450 g) and quickly immersed in cooled Krebs-Henseleit solution. Removed basilar arteries were divided by about 3 mm width with ophthalmic scissors and made as ringed samples. Samples hung in micro tissue organ bath (MTOB-1: Preimetech Corp.) filled with Krebs-Henseleit solution (37° C.). They were loaded with about 0.2 g resting tension stabilized for about 60 minutes, and then constrictive movement was recorded on a recorder (linearcoda WR3320: Graphtec Corp.) through strain compression amplifier (AP-601G, Nihon Kohden) from micro tissue organ bath.

`Cc1nn(C)c2nc(NNC(=O)Nc3cc(Cl)nc(Cl)c3)cc(C(C)C)c12` [compound (3), N-(2,6-dichloro-4-piridinyl)-2-(4-isopropyl-1,3-dimethyl-1H-pyrazolo[3,4-b]pyridin-6-yl)hydrazinecarboxamide] was tested, and the “inhibition of vasoconstrictor action of rat basilar artery by S1P (basilar artery diameter)” value (rat basilar artery) was “inhibited; also recorded: suppression” and the “inhibitory effect on vasoconstrictor action of rat removed basilar artery by S1P” value [1] was “inhibitory effect; also recorded: suppression”.
